# Where two headings read alike, the source gives them in different places.
# How the values were obtained:
# [1] = test system: H69 small cell lung cancer; assay: Efficacy on subcutaneous transplanted 1200 mm^3 H69 small cell lung cancer model; assay type: in vivo, BALB/C nude mice; conditions: topotecan MTD 2 mg/kg (free base) once a day for five days; 1200 mm^3 tumors
# Source text: Biological Assessment Example I: Comparison of Efficacy of 101B00G and Topotecan on Subcutaneous Transplanted 1200 mm^3 H69 Small Cell Lung Cancer Model
# HepG2 tumors = assay: In vivo efficacy in HepG2 xenograft CDX mouse model; set-up: species or system BALB/C nude mice; conditions: Day 33
# Method: Biological Assessment Example F: […] The tumor volume was calculated as: […] The evaluation criteria are as follows: […]
# [2] = BALB/C nude, mouse, in vivo, iv, 10 mg/kg
# Method: Mice were killed at set time points. Plasma was taken after blood centrifugation. Tumor tissues were isolated, temporarily stored in dry ice and then transferred to −80° C. freezer for later use.
# Tumor tissues were thawed, weighed and then added a certain amount of 50/50 methanol and water. The mixture was homogenized on the handheld homogenizer with ice bath, centrifuged at 4° C. 6000×g for 10 min, and the supernatant was collected.
# 30 μL of plasma or homogenized tumor supernatant were taken and added 200 μL of acetonitrile with internal standard (tolbutamide, 50 ng/mL). The mixture was vortexed for 5 min and centrifuged at 6000×g for 10 min. 75 μL of the supernatant was transferred to a 96-well plate pre-added with 75 μL of water and shaked at 500 rpm for 5 min. 2 μL of sample was injected for LC MS/MS analysis.
# Column: ACQUITY UPLC BEH C18 (2.1×50 mm, 1.7 μm)
# Phase A: 0.1% formic acid/water, Phase B: 0.1% formic acid/acetonitrile
"Plasma concentration of released drug, average value ([2]; 0.083 h)","Plasma concentration of released drug, average value ([2]; 0.5 h)","Plasma concentration of released drug, average value ([2]; 1 h)","Plasma concentration of released drug, average value ([2]; 3 h)","Plasma concentration of released drug, average value ([2]; 8 h)",SMILES,Increase of tumor volume on Day 22 compared with the initial value [1],TGI (%) / tumor inhibition rate (HepG2 tumors)
–,–,–,–,–,CC[C@@]1(O)C(=O)OCc2c1cc1n(c2=O)Cc2cc3c(CN(C)C)c(O)ccc3nc2-1 [topotecan],22%,–
865,385,407,172.6,27.7,CCc1c2c(nc3ccc(OC(=O)N4CCC(N5CCCCC5)CC4)cc13)-c1cc3c(c(=O)n1C2)COC(=O)[C@]3(O)CC [irinotecan],–,−49%

# From US20250255977A1, “EPSILON-POLY-L-LYSINE-BASED DRUG CONJUGATE, INTERMEDIATE THEREOF, AND APPLICATION THEREOF” (SHANGHAI BEST-LINK BIOSCIENCE, LLC, priority 2021, published 2025)
